Key:
MV4-11 = experiment: Antiproliferative activity against human MV4-11 cells assessed as inhibition of cell proliferation incubated for 72 hrs by CCK-8 assay; assay type: functional, cell-based; conditions: MV4-11, 72 h
[1] = Metabolic stability in human liver microsome assessed as parent compound remaining preincubated with compound for 10 mins followed by NADPH addition and measured immediately by LC-MS/MS analysis; assay type: ADME; conditions: liver microsomes, read-out: Stability
[2] = Metabolic stability in human liver microsome assessed as parent compound remaining preincubated with compound for 10 mins followed by NADPH addition and measured at 5 min by LC-MS/MS analysis; assay type: ADME; conditions: liver microsomes, time 15 min, read-out: Stability
[3] = Metabolic stability in human liver microsome assessed as parent compound remaining preincubated with compound for 10 mins followed by NADPH addition and measured at 15 min by LC-MS/MS analysis; assay type: ADME; conditions: liver microsomes, time 25 min, read-out: Stability
[4] = Metabolic stability in human liver microsome assessed as parent compound remaining preincubated with compound for 10 mins followed by NADPH addition and measured at 30 min by LC-MS/MS analysis; assay type: ADME; conditions: liver microsomes, time 40 min, read-out: Stability
[5] = Metabolic stability in human liver microsome assessed as parent compound remaining preincubated with compound for 10 mins followed by NADPH addition and measured at 60 min by LC-MS/MS analysis; assay type: ADME; conditions: liver microsomes, time 70 min, read-out: Stability
[6] = Metabolic stability in human liver microsome assessed as half life preincubated with compound for 10 mins followed by NADPH addition and measured up to 60 min by LC-MS/MS analysis; assay type: ADME; conditions: liver microsomes, time < 70 min
[7] = Metabolic stability in human microsome assessed as intrinsic clearance preincubated with compound for 10 mins followed by NADPH addition and measured up to 60 min by LC-MS/MS analysis; assay type: ADME; conditions: microsomes, time < 70 min, read-out: CLH
[8] = Metabolic stability in human liver microsome assessed as intrinsic clearance preincubated with compound for 10 mins followed by NADPH addition and measured up to 60 min by LC-MS/MS analysis; assay type: ADME; conditions: liver microsomes, time < 70 min, read-out: CLH
[9] = Initial plasma concentration in ICR mouse at 2 mg/kg, iv measured up to 24 hrs by LC-MS/MS analysis; assay type: ADME, organism-based
[10] = Cmax in ICR mouse at 2 mg/kg, iv measured up to 24 hrs by LC-MS/MS analysis; assay type: ADME, organism-based; conditions: in vivo
[11] = Cmax in ICR mouse at 10 mg/kg, po measured up to 24 hrs by LC-MS/MS analysis; assay type: ADME, organism-based; conditions: in vivo
[12] = Half life in ICR mouse at 2 mg/kg, iv measured up to 24 hrs by LC-MS/MS analysis; assay type: ADME, organism-based; conditions: in vivo
[13] = Half life in ICR mouse at 10 mg/kg, po measured up to 24 hrs by LC-MS/MS analysis; assay type: ADME, organism-based; conditions: in vivo
[14] = Tmax in ICR mouse at 2 mg/kg, iv measured up to 24 hrs by LC-MS/MS analysis; assay type: ADME, organism-based; conditions: in vivo
[15] = Tmax in ICR mouse at 10 mg/kg, po measured up to 24 hrs by LC-MS/MS analysis; assay type: ADME, organism-based; conditions: in vivo
[16] = AUC (0 to t) in ICR mouse at 2 mg/kg, iv measured up to 24 hrs by LC-MS/MS analysis; assay type: ADME, organism-based; conditions: in vivo
[17] = AUC (0 to t) in ICR mouse at 10 mg/kg, po measured up to 24 hrs by LC-MS/MS analysis; assay type: ADME, organism-based; conditions: in vivo
[18] = AUC (0 to infinity) in ICR mouse at 2 mg/kg, iv measured up to 24 hrs by LC-MS/MS analysis; assay type: ADME, organism-based; conditions: in vivo
[19] = AUC (0 to infinity) in ICR mouse at 10 mg/kg, po measured up to 24 hrs by LC-MS/MS analysis; assay type: ADME, organism-based; conditions: in vivo
[20] = MRT (0 to t) in ICR mouse at 2 mg/kg, iv measured up to 24 hrs by LC-MS/MS analysis; assay type: ADME, organism-based; conditions: in vivo
[21] = MRT (0 to t) in ICR mouse at 10 mg/kg, po measured up to 24 hrs by LC-MS/MS analysis; assay type: ADME, organism-based; conditions: in vivo
[22] = MRT (0 to infinity) in ICR mouse at 2 mg/kg, iv measured up to 24 hrs by LC-MS/MS analysis; assay type: ADME, organism-based; conditions: in vivo
[23] = MRT (0 to infinity) in ICR mouse at 10 mg/kg, po measured up to 24 hrs by LC-MS/MS analysis; assay type: ADME, organism-based; conditions: in vivo
[24] = Clearance in ICR mouse at 2 mg/kg, iv measured up to 24 hrs by LC-MS/MS analysis; assay type: ADME, organism-based; conditions: in vivo
[25] = Volume of distribution at steady state in ICR mouse at 2 mg/kg, iv measured up to 24 hrs by LC-MS/MS analysis; assay type: ADME, organism-based; conditions: in vivo, read-out: Vdss
[26] = Oral bioavailability in ICR mouse at 10 mg/kg measured up to 24 hrs by LC-MS/MS analysis; assay type: ADME, organism-based; conditions: in vivo
[27] = target: Serine/threonine-protein kinase Chk2 (Homo sapiens) (UniProt O96017); experiment: Inhibition of CHK2 (unknown origin) at 500 nM relative to control
Sequence of Serine/threonine-protein kinase Chk2 (Homo sapiens) (O96017 whole entry): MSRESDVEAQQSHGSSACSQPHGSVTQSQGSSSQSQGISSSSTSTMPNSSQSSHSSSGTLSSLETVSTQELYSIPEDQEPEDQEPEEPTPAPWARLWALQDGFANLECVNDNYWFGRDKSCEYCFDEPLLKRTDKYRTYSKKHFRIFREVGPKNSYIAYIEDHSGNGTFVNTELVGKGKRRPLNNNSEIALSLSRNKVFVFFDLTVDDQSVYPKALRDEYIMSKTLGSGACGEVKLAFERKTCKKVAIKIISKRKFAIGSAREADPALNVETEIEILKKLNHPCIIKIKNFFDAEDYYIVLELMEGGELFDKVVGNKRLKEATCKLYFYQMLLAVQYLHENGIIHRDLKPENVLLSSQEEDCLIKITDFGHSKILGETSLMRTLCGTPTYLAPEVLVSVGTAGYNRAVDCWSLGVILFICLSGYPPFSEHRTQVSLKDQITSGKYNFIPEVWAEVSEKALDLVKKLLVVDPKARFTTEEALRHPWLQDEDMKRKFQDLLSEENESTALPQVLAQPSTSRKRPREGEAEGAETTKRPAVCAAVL

HT-29 [28] = experiment: Antitumor activity against human HT-29 cells xenografted in female BALB/c mouse assessed as tumor growth inhibition at 30 mg/kg, iv administered once daily for 21 days and measured after 3 days by vernier calipers analysis; conditions: HT-29, 576 h, read-out: TGI
HT-29 [29] = experiment: Antitumor activity against human HT-29 cells xenografted in female BALB/c mouse assessed as tumor growth inhibition at 30 mg/kg, iv administered once daily for 21 days and measured after 3 days in presence of gemcitabine by vernier calipers analysis; conditions: HT-29, 576 h, read-out: TGI
[30] = Toxicity in female BALB/c mouse xenografted with human HT-29 cells assessed as change in body weight at 30 mg/kg, iv administered once daily for 21 days and measured after 3 days; assay type: organism-based; conditions: in vivo, 576 h, time 24 day
HT-29 [31] = experiment: cells; conditions: Homo sapiens, HT-29, 72 h
Description: Antiproliferative activity against human HT-29 cells assessed as inhibition of cell proliferation incubated for 72 hrs by CCK-8 assay

A549 = experiment: cells; conditions: Homo sapiens, A549, 72 h
Description: Antiproliferative activity against human A549 cells assessed as inhibition of cell proliferation incubated for 72 hrs by CCK-8 assay

OVCAR-3 = experiment: cells; conditions: Homo sapiens, OVCAR-3, 72 h
Description: Antiproliferative activity against human OVCAR-3 cells assessed as inhibition of cell proliferation incubated for 72 hrs by CCK-8 assay

HL-60 = experiment: cells; conditions: Homo sapiens, HL-60, 72 h
Description: Antiproliferative activity against human HL-60 cells assessed as inhibition of cell proliferation incubated for 72 hrs by CCK-8 assay

HCT-116 = experiment: cells; conditions: Homo sapiens, HCT-116, 72 h
Description: Antiproliferative activity against human HCT-116 cells assessed as inhibition of cell proliferation incubated for 72 hrs by CCK-8 assay

A2780 = experiment: cells; conditions: Homo sapiens, A2780, 72 h
Description: Antiproliferative activity against human A2780 cells assessed as inhibition of cell proliferation incubated for 72 hrs by CCK-8 assay

MDA-MB-468 = experiment: cells; conditions: Homo sapiens, MDA-MB-468, 72 h
Description: Antiproliferative activity against human MDA-MB-468 cells assessed as inhibition of cell proliferation incubated for 72 hrs by CCK-8 assay

HT-29 [32] = experiment: cells; conditions: Homo sapiens, HT-29, 72 h; remark: listed apart in the source
Description: Synergistic antiproliferative activity against human HT-29 cells assessed as inhibition of cell proliferation incubated for 72 hrs in presence of gemcitabine by CCK-8 assay

HT-29 [33] = experiment: cells; conditions: Homo sapiens, HT-29, 72 h; remark: listed apart in the source

`N#Cc1ncc(Nc2ncc3c(ccc(=O)n3CC(F)F)n2)cc1N[C@@H]1CCNC1` gave an IC50 (MV4-11) of 202 nM, a remaining at 0 min [1] of 100% and a remaining at 5 min [2] of 60.1%. It also gave a remaining at 0.25 h [3] of 24.4%, a remaining at 0.5 h [4] of 8.93% and a remaining at 1 h [5] of 1.96%. For the same molecule, the half-life [6] was 0.18 h, the microsomal CLint [7] was 129 µL/min/mg and the CLint scaled [8] was 116 mL/min/kg. For the same molecule, the C0 at 24 h [9] was 860 ng/mL, the Cmax [10] was 526 ng/mL and the Cmax [11] was 81.1 ng/mL. For the same molecule, the half-life [12] was 5.7 h, the half-life [13] was 1.51 h and the Tmax [14] was 4.8 min. It also gave a Tmax [15] of 4.8 min, an AUC(0-t) at 24 h [16] of 327 ng·h/mL and an AUC(0-t) at 24 h [17] of 40.7 ng·h/mL. It also gave an AUC(0-inf) [18] of 341 ng·h/mL, an AUC(0-inf) [19] of 47.3 ng·h/mL and an MRT last at 24 h [20] of 2.67 h. It also gave an MRT last at 24 h [21] of 1 h, an MRT inf [22] of 3.91 h and an MRT inf [23] of 1.65 h. The clearance [24] was 98.4 mL/min/kg, the Vd [25] was 23.3 L/kg and the bioavailability [26] was 2.77%. For the same molecule, the inhibition [27] was 22%, the inhibition in vivo at 30 mg/kg (HT-29 [28]) was 20.6% and the inhibition in vivo at 30 mg/kg (HT-29 [29]) was 42.8%. The Activity [30] was “Non-Toxic”, the IC50 (HT-29 [31]) was 1170 nM and the IC50 (A549) was greater than 10000 nM. For the same molecule, the IC50 (OVCAR-3) was 606 nM, the IC50 (HL-60) was greater than 10000 nM and the IC50 (HCT-116) was greater than 10000 nM. The IC50 (A2780) was greater than 10000 nM, the IC50 (MDA-MB-468) was greater than 10000 nM and the IC50 (HT-29 [32]) was 63.5 nM. The IC50 (HT-29 [33]) was 63.5 nM.
